For 6 compounds, IC50 results are on record in BindingDB's records for doi:10.1021/jm00080a021 (Notre-Dame Hospital Research, 1992).

The experiment concerns the target Ribonucleoside-diphosphate reductase large subunit R1 (Herpes simplex virus type 1). Description: Inhibitory concentration against HSV-1 ribonucleotide reductase R1 protein binding.
A word on the IC50: it is the point on the concentration scale where inhibition reaches its midpoint. A higher IC50 goes with weaker potency in that assay. In turn, “Ac-YAGTVINSL-OH [2-{2-[2-(2-{2-[2-(2-{2-[2-Acetylamino-3-(4-hydroxy-phenyl)-propionylamino]-propionylamino}-acetylamino)-3-hydroxy-butyrylamino]-3-methyl-butyrylamino}-3-methyl-pentanoylamino)-3-carbamoyl-propionylamino]-3-hydroxy-propionylamino}-4-methyl-pentanoic acid]” gave an IC50 greater than 1000 µM.
Compound `CC[C@H](C)[C@H](NC(=O)[C@@H](NC(=O)[C@@H](NC(=O)CNC(=O)[C@H](C)NC(=O)[C@H](Cc1ccc(O)cc1)NC(C)=O)[C@@H](C)O)C(C)C)C(=O)N[C@@H](CO)C(=O)N[C@@H](CC(=O)O)C(=O)N[C@@H](CC(C)C)C(=O)O` [2-{2-[2-(2-{2-[2-(2-{2-[2-Acetylamino-3-(4-hydroxy-phenyl)-propionylamino]-propionylamino}-acetylamino)-3-hydroxy-butyrylamino]-3-methyl-butyrylamino}-3-methyl-pentanoylamino)-3-hydroxy-propionylamino]-3-carboxy-propionylamino}-4-methyl-pentanoicacid] registered an IC50 of 395 µM.
Compound `CC[C@H](C)[C@H](NC(=O)[C@@H](NC(=O)[C@@H](NC(=O)CNC(=O)[C@H](C)NC(=O)[C@H](Cc1ccc(O)cc1)NC(C)=O)[C@@H](C)O)C(C)C)C(=O)N[C@@H](CC(N)=O)C(=O)N[C@@H](CC(N)=O)C(=O)N[C@@H](CC(C)C)C(=O)O` gave an IC50 of 640 µM.
Turning to `CC(=O)N[C@@H](Cc1ccc(O)cc1)C(=O)N[C@@H](C)C(=O)NCC(=O)N[C@H](C(=O)N[C@H](C(=O)N[C@@H](C(=O)N[C@@H](CC(N)=O)C(=O)N[C@@H](CC(=O)O)C(=O)N[C@@H](CC(C)C)C(=O)O)C(C)C)C(C)C)[C@@H](C)O` [2-{2-[2-(2-{2-[2-(2-{2-[2-Acetylamino-3-(4-hydroxy-phenyl)-propionylamino]-propionylamino}-acetylamino)-3-hydroxy-butyrylamino]-3-methyl-butyrylamino}-3-methyl-butyrylamino)-3-carbamoyl-propionylamino]-3-carboxy-propionylamino}-4-methyl-pentanoicacid], the IC50 is greater than 1000 µM.
The same measure for `CC[C@H](C)[C@H](NC(=O)[C@@H](NC(=O)[C@@H](NC(=O)CNC(=O)[C@H](C)NC(=O)[C@H](Cc1ccc(O)cc1)NC(C)=O)[C@@H](C)O)C(C)C)C(=O)N[C@@H](CC(N)=O)C(=O)N[C@@H](CCC(=O)O)C(=O)N[C@@H](CC(C)C)C(=O)O` [2-{2-[2-(2-{2-[2-(2-{2-[2-Acetylamino-3-(4-hydroxy-phenyl)-propionylamino]-propionylamino}-acetylamino)-3-hydroxy-butyrylamino]-3-methyl-butyrylamino}-3-methyl-pentanoylamino)-3-carbamoyl-propionylamino]-4-carboxy-butyrylamino}-4-methyl-pentanoicacid]: 650 µM; for “Ac-YAGTVINCL-OH [2-{2-[2-(2-{2-[2-(2-{2-[2-Acetylamino-3-(4-hydroxy-phenyl)-propionylamino]-propionylamino}-acetylamino)-3-hydroxy-butyrylamino]-3-methyl-butyrylamino}-3-methyl-pentanoylamino)-3-carbamoyl-propionylamino]-3-mercapto-propionylamino}-4-methyl-pentanoic acid]”: greater than 1000 µM.
